Common to all, as to format: binding
Assay [1] has as its target T1, JAK1 (Homo sapiens, UniProt P23458).
T1 construct: endogenous in cells; host or cells: Molt4 (ATCC CRL-1582) and Ramos (ATCC CRL-1596) cells; mixed lysate 1:2
The experiment in a line: Kinobeads assay with immunodetection, JAK1. The settings on record: for IC50: Kinobeads assay, mixed Molt4/Ramos lysate, read-out: Inhibition values (IC50) JAK1. A digest of the protocol:
(§1)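 Mixed Molt4/Ramos lysate (1:2, 10 mg/mL protein) incubated 3 h in the cold with compound (1:3 series from 5 mM DMSO stock) and immobilized aminopyrido-pyrimidine Kinobeads. Bead-bound JAK1, JAK2, JAK3 and TYK2 eluted and quantified by antibody dot blot (Odyssey), IC50 from dose-response curves.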

In assay [2] the target is T2, JAK2 (Homo sapiens, UniProt O60674).
T2 construct: endogenous in cells; host or cells: Molt4 (ATCC CRL-1582) and Ramos (ATCC CRL-1596) cells; mixed lysate 1:2
T2 sequence (O60674 whole entry): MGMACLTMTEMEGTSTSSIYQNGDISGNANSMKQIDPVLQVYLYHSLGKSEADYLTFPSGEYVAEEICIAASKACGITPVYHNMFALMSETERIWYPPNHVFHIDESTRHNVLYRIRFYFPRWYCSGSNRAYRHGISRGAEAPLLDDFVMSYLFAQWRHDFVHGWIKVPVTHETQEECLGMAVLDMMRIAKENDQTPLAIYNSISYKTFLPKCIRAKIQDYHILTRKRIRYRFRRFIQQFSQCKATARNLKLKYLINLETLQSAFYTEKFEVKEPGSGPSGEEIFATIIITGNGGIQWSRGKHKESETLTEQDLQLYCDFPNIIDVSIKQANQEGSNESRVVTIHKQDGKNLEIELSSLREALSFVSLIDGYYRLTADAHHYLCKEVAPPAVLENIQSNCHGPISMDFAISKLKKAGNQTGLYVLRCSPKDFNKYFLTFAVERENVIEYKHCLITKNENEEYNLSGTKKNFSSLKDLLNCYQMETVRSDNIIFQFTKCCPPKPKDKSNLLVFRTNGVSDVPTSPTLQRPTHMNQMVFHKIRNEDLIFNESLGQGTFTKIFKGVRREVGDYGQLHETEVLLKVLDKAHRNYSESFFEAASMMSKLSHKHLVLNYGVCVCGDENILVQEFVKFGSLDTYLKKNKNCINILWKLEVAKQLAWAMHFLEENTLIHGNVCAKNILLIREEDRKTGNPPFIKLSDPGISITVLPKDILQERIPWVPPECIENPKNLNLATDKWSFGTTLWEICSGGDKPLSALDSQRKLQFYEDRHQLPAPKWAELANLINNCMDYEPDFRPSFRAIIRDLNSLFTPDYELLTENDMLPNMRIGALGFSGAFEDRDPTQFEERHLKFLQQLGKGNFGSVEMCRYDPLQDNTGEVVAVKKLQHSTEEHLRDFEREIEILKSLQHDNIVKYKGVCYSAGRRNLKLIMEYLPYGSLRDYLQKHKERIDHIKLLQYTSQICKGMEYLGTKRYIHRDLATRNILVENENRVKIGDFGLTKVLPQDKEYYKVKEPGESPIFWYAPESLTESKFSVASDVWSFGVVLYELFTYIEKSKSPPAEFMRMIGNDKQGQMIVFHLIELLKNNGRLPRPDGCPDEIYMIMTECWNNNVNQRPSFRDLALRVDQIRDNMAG
As to the kind of experiment: Kinobeads assay with immunodetection, JAK2. The following applies: mixed Molt4/Ramos lysate, read-out: Inhibition values (IC50) JAK2. A digest of the protocol:
as §1

In assay [3] the target is T3, JAK3 (Homo sapiens, UniProt P52333).
T3 construct: endogenous in cells; host or cells: Molt4 (ATCC CRL-1582) and Ramos (ATCC CRL-1596) cells; mixed lysate 1:2
T3 sequence (P52333 1-1124): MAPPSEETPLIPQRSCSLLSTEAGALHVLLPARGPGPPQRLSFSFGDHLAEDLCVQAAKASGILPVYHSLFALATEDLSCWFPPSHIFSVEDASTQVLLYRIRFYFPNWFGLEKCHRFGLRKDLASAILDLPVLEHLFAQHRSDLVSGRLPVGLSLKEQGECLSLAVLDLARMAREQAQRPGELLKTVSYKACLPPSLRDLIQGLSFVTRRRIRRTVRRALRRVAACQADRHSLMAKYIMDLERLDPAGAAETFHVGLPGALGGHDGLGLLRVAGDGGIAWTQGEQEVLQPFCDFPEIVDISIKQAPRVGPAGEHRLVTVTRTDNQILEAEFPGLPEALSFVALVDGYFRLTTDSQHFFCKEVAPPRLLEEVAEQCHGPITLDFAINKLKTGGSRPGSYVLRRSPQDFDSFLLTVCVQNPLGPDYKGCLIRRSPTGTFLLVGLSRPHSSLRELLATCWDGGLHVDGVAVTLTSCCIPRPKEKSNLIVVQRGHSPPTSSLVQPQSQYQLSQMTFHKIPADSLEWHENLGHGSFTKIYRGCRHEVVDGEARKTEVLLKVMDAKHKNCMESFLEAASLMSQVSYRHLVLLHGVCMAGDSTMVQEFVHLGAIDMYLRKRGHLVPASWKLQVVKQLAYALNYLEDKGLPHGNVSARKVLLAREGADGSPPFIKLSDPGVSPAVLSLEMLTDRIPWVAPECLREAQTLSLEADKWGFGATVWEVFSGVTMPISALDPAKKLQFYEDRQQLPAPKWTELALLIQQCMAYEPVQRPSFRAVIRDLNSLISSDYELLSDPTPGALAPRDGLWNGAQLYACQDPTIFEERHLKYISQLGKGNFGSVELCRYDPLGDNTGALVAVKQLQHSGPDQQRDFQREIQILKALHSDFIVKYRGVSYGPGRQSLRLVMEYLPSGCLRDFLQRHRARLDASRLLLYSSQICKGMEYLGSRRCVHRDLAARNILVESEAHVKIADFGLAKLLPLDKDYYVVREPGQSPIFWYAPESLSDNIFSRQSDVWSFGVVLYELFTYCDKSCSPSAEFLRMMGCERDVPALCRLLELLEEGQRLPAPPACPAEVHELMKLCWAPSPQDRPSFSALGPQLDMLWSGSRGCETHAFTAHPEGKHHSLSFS
The experiment in a line: Kinobeads assay with immunodetection, JAK3. The following applies: for IC50: Kinobeads assay, mixed Molt4/Ramos lysate, read-out: Inhibition values (IC50) JAK3. A digest of the protocol: as §1

Assay [4] concerns the target T4, TYK2 (Homo sapiens, UniProt P29597).
T4 construct: endogenous in cells; host or cells: Molt4 (ATCC CRL-1582) and Ramos (ATCC CRL-1596) cells; mixed lysate 1:2
As to the kind of experiment: Kinobeads assay with immunodetection, TYK2. The following applies: for IC50: Kinobeads assay, mixed Molt4/Ramos lysate, read-out: Inhibition values (IC50) Tyk2. A digest of the protocol: as §1

T4 sequence (P29597 whole entry): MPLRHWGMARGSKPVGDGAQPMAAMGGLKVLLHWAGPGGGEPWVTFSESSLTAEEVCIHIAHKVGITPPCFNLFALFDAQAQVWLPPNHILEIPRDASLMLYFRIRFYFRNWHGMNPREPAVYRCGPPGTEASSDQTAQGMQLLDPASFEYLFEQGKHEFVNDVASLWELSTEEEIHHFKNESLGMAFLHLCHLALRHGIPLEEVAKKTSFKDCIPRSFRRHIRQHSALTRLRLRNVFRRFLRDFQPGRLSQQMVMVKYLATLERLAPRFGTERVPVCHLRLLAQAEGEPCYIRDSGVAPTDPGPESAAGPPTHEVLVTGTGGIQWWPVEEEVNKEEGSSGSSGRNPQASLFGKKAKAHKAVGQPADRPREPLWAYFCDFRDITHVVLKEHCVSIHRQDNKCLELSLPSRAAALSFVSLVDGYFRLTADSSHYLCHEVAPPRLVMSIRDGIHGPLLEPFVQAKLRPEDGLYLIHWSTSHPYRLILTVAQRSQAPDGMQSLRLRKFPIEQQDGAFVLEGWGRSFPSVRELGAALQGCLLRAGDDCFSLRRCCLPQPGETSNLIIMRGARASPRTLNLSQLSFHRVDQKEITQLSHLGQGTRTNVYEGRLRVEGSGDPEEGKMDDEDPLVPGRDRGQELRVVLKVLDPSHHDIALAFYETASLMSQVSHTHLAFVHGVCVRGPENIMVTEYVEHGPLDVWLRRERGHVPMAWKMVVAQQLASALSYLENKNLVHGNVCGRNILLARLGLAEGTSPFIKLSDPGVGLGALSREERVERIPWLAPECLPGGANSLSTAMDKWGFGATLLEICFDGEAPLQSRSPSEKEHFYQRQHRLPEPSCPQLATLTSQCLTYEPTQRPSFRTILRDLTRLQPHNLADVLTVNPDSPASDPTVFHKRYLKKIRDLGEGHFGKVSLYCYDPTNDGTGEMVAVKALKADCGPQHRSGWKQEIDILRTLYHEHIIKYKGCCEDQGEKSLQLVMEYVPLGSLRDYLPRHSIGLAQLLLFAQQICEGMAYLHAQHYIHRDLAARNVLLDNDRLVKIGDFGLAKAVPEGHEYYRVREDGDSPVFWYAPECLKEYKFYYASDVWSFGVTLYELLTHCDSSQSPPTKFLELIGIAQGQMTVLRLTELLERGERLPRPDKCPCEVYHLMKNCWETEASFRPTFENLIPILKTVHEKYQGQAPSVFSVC
T1 sequence (P23458 whole entry): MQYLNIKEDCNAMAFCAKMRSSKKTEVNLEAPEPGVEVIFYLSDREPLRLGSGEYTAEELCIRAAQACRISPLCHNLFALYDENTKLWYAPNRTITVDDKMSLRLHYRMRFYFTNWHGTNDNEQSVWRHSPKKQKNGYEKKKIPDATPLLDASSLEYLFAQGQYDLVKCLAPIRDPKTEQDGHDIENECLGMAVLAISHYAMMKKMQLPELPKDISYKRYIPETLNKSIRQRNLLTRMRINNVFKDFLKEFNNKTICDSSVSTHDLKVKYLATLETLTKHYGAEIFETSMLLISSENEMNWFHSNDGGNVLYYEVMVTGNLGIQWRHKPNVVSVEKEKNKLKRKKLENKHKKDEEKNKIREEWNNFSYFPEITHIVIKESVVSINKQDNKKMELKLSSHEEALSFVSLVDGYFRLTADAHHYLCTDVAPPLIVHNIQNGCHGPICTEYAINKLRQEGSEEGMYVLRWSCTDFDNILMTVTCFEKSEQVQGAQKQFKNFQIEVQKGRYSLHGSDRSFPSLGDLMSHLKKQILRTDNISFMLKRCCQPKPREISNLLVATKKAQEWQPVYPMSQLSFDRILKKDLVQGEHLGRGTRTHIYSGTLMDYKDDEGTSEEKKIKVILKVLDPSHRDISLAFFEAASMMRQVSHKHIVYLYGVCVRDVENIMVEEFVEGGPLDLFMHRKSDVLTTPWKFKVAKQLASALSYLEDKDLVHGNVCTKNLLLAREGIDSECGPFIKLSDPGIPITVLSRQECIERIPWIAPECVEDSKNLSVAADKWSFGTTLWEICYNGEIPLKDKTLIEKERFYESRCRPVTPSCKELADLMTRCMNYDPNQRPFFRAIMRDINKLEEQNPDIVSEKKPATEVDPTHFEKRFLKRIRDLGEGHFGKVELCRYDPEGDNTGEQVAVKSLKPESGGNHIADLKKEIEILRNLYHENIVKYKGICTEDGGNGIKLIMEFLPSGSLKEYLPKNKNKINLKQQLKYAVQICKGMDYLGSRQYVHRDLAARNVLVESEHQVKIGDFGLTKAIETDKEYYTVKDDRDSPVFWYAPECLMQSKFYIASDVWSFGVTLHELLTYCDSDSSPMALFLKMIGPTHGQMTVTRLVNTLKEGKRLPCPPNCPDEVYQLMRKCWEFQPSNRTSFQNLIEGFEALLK

By IC50 is commonly meant the concentration that inhibits the measured activity by half. With `Cn1cc(Nc2ncc(Cl)c(NC[C@@H]3C[C@H](F)CN3C(=O)CCC#N)n2)cn1` [Example 110, 4-((2S,4S)-2-(((5-chloro-2-((1-methyl-1H-pyrazol-4-yl)amino)pyrimidin-4-yl)amino)methyl)-4-fluoropyrrolidin-1-yl)-4-oxobutanenitrile], the “Selectivity ratio over JAK2, JAK1” value in assay [1] is “JAK1 = 88”. The IC50 in assay [1] is < 100 nM; in assay [2], 1000 to 10000 nM; in assay [3] it was < 100 nM; in assay [4] it was 100 to 1000 nM.
Regarding `C=CS(=O)(=O)N1CCC[C@@H]1CNc1nc(Nc2cnn(C)c2)ncc1Cl` [Example 7, (R)-5-chloro-N^2-(1-methyl-1H-pyrazol-4-yl)-N^4-((1-(vinylsulfonyl)pyrrolidin-2-yl)methyl)pyrimidine-2,4-diamine], the 50% inhibitory concentration (IC50) in assay [1] was 100 to 1000 nM; in assay [2], 1000 to 10000 nM; in assay [3], < 100 nM; in assay [4], 100 to 1000 nM. The “Selectivity ratio over JAK2, JAK3” value in assay [3] is “JAK3 = 100”.
Regarding `Cn1cc(Nc2ncc(Cl)c(NC[C@@H]3C[C@H](F)CN3CCS(C)(=O)=O)n2)cn1` [Example 91, 5-chloro-N^4-(((2S,4S)-4-fluoro-1-(2-(methylsulfonyl)ethyl)pyrrolidin-2-yl)methyl)-N^2-(1-methyl-1H-pyrazol-4-yl)pyrimidine-2,4-diamine], the “Selectivity ratio over JAK2, JAK1” value in assay [1] is given as “JAK1 = 27”. In addition, the concentration for half-maximal inhibition (IC50) in assay [1] is < 100 nM; in assay [2], 100 to 1000 nM; in assay [3], < 100 nM; in assay [4], < 100 nM.
For the compound `Cn1cc(Nc2ncc(Cl)c(NC[C@H]3CCN(CCC#N)C3)n2)cn1` [Example 57, (R)-3-(3-((5-chloro-2-(1-methyl-1H-pyrazol-4-ylamino)pyrimidin-4-ylamino)methyl)pyrrolidin-1-yl)propanenitrile], the “Selectivity ratio over JAK2, JAK1” value in assay [1] is listed as “JAK1 = 15”. Besides, the 50% inhibitory concentration (IC50) is 100 to 1000 nM in assay [1], 1000 to 10000 nM in assay [2], < 100 nM in assay [3] and 100 to 1000 nM in assay [4].
Take `C=CC(=O)N1CCC[C@@H]1CNc1nc(Nc2cnn(C)c2)ncc1Cl` [Example 3, (R)-1-(2-(((5-chloro-2-((1-methyl-1H-pyrazol-4-yl)amino)pyrimidin-4-yl)amino)methyl)pyrrolidin-1-yl)prop-2-en-1-one]: the half-maximal inhibitory concentration (IC50) lay within 100 to 1000 nM in assay [1], 1000 to 10000 nM in assay [2], 100 to 1000 nM in assay [3] and 100 to 1000 nM in assay [4]. The “Selectivity ratio over JAK2, Tyk2” value in assay [4] was “Tyk2 = 10”.
As to `Cn1cc(Nc2ncc(F)c(NC[C@H]3CCCN3CCC#N)n2)cn1` [Example 112, (R)-3-(2-(((5-fluoro-2-((1-methyl-1H-pyrazol-4-yl)amino)pyrimidin-4-yl)amino)methyl)pyrrolidin-1-yl)propanenitrile], the IC50 in assay [1] was 100 to 1000 nM; in assay [2] it was 1000 to 10000 nM; in assay [3], 100 to 1000 nM; in assay [4], < 100 nM. Further, in assay [4], the “Selectivity ratio over JAK2, Tyk2” value was “Tyk2 = 53”.
As for `Cc1cnc(Nc2cnn(CC(F)F)c2)nc1NC[C@@H]1C[C@H](F)CN1CCS(C)(=O)=O` [Example 120, N^2-(1-(2,2-difluoroethyl)-1H-pyrazol-4-yl)-N^4-(((2S,4S)-4-fluoro-1-(2-(methylsulfonyl)ethyl)pyrrolidin-2-yl)methyl)-5-methylpyrimidine-2,4-diamine], the “Selectivity ratio over JAK2, JAK1” value in assay [1] was “JAK1 = 81”. Also, the IC50 is < 100 nM in assay [1], 1000 to 10000 nM in assay [2], 1000 to 10000 nM in assay [3] and 100 to 1000 nM in assay [4].
In the case of `CC(=O)N1CCC[C@H]1CNc1nc(Nc2cnn(CCO)c2)ncc1Cl` [Example 9, (S)-1-(2-(((5-chloro-2-((1-(2-hydroxyethyl)-1H-pyrazol-4-yl)amino)pyrimidin-4-yl)amino)methyl)pyrrolidin-1-yl)ethanone], in assay [1], the “Selectivity ratio over JAK2, JAK1” value is listed as “JAK1 = 25”. The IC50 in assay [1] was 100 to 1000 nM; in assay [2], 1000 to 10000 nM; in assay [3] it was 100 to 1000 nM; in assay [4], 100 to 1000 nM.
As to `Cn1cc(Nc2ncc(Cl)c(NC[C@@H]3C[C@H](F)CN3CCCC#N)n2)cn1` [Example 133, 4-((2S,4S)-2-(((5-chloro-2-((1-methyl-1H-pyrazol-4-yl)amino)pyrimidin-4-yl)amino)methyl)-4-fluoropyrrolidin-1-yl)butanenitrile], the “Selectivity ratio over JAK2, JAK1” value in assay [1] is given as “JAK1 = 19”. Besides, the IC50 in assay [1], in assay [2], in assay [3] and in assay [4] was < 100 nM in each case.
Take `CN(C)C(=O)Cn1cc(Nc2ncc(Cl)c(NC[C@H]3CCCN3S(C)(=O)=O)n2)cn1` [Example 68, (R)-2-(4-(5-chloro-4-((1-(methylsulfonyl)pyrrolidin-2-yl)methylamino)pyrimidin-2-ylamino)-1H-pyrazol-1-yl)-N,N-dimethylacetamide]: the half-maximal inhibitory concentration (IC50) in assay [1], in assay [2], in assay [3] and in assay [4] was < 100 nM each time. Besides, in assay [4], the “Selectivity ratio over JAK2, Tyk2” value is recorded as “Tyk2 = 13”.
Turning to `Cn1cc(Nc2ncc(Cl)c(NC[C@H]3CCCN3C3CCS(=O)(=O)C3)n2)cn1` (stereo partly drawn) [Example 115, 3-((R)-2-(((5-chloro-2-((1-methyl-1H-pyrazol-4-yl)amino)pyrimidin-4-yl)amino)methyl)pyrrolidin-1-yl)tetrahydrothiophene 1,1-dioxide], the concentration for half-maximal inhibition (IC50) in assay [1] is < 100 nM; in assay [2], 100 to 1000 nM; in assay [3], < 100 nM; in assay [4] it was < 100 nM. Besides, in assay [4], the “Selectivity ratio over JAK2, Tyk2” value is listed as “Tyk2 = 68”.
As for `CC(=O)N1CCC[C@H]1CNc1nc(Nc2cnn(C)c2)ncc1Cl` [Example 8, (S)-1-(2-(((5-chloro-2-((1-methyl-1H-pyrazol-4-yl)amino)pyrimidin-4-yl)amino)methyl)pyrrolidin-1-yl)ethanone], in assay [1], the “Selectivity ratio over JAK2, JAK1” value is “JAK1 = 17”. Besides, the IC50 in assay [1] is 100 to 1000 nM; in assay [2] it was 1000 to 10000 nM; in assay [3] it was 100 to 1000 nM; in assay [4] it was 100 to 1000 nM.
`CN1C(=O)CCC1CNc1nc(Nc2cnn(C)c2)ncc1Cl` (stereo not drawn) [Example 78, 5-(((5-chloro-2-((1-methyl-1H-pyrazol-4-yl)amino)pyrimidin-4-yl)amino)methyl)-1-methylpyrrolidin-2-one]: the “Selectivity ratio over JAK2, JAK1” value in assay [1] was “JAK1 = 38”. Moreover, the IC50 in assay [1] fell in the range of 100 to 1000 nM; in assay [2], 1000 to 10000 nM; in assay [3], 1000 to 10000 nM; in assay [4], 100 to 1000 nM.
Consider `CC(C)S(=O)(=O)CCN1CCC[C@@H]1CNc1nc(Nc2cnn(C)c2)ncc1Cl` [Example 139, (R)-5-chloro-N^4-((1-(2-(isopropylsulfonyl)ethyl)pyrrolidin-2-yl)methyl)-N^2-(1-methyl-1H-pyrazol-4-yl)pyrimidine-2,4-diamine], for which the 50% inhibitory concentration (IC50) in assay [1] is < 100 nM; in assay [2], 1000 to 10000 nM; in assay [3], < 100 nM; in assay [4] it was 100 to 1000 nM. Further, the “Selectivity ratio over JAK2, JAK3” value in assay [3] is “JAK3 = 83”.
Turning to `CC(=O)N1CCCC[C@H]1CNc1nc(Nc2cnn(CCO)c2)ncc1Cl` [Example 33, (S)-1-(2-(((5-chloro-2-((1-(2-hydroxyethyl)-1H-pyrazol-4-yl)amino)pyrimidin-4-yl)amino)methyl)piperidin-1-yl)ethanone], the “Selectivity ratio over JAK2, JAK1” value in assay [1] is listed as “JAK1 = 20”. Further, the IC50 in assay [1] was 1000 to 10000 nM; in assay [2] it was > 10000 nM; in assay [3], 100 to 1000 nM; in assay [4], 1000 to 10000 nM.

For the origin of these results see US20150005281A1, “PYRIMIDINE-2,4-DIAMINE DERIVATIVES AS KINASE INHIBITORS” (Cellzome Limited, priority 2011, published 2015).
